Experimental data from patent publication US10793543B2, “Selective C-KIT kinase inhibitor” (PRECEDO PHARMACEUTICALS CO., LTD, priority 2016, dated 2020).

Columns and labels:
[1] = test system: Tel-cKit/V559D-BaF3 cells (KIT V559D); assay: Cell proliferation, CCK-8, Tel-cKit/V559D-BaF3; type: cell-based; settings: Mus musculus, 72 hours
Description: (§1) In addition, in the present example, further uses: mouse P210/BaF3 (stably expressing P210 Bcr-Abl mutant gene), mouse Tel-ABL-BaF3 (stably expressing wild-type ABL kinase), mouse Tel-cKit-BaF3 (stably expressing C-KITwild-type kinase), mouse Tel-cKit/V559D-BaF3 (stably expressing C-KIT V559D mutant kinase), mouse Tel-cKit/V559D/V654A-BaF3 (stably expressing C-KIT V559D/V654A mutant kinase), mouse Tel-cKit/N822K-BaF3 (stably expressing C-KIT N822K mutant kinase), mouse Tel-cKit/V654A-BaF3 (stably expressing C-KIT V654A mutant kinase), mouse Tel-cKit/L567P-BaF3 (stably expressing C-KIT L567P mutant kinase), mouse Tel-cKit/T670I-BaF3 (stably expressing C-KIT T670I mutant kinase), mouse Tel-PDGFRα-BaF3 (stably expressing PDGFRα kinase), mouse Tel-PDGFRβ-BaF3 (stably expressing PDGFRβ kinase), mouse Tel-VEGFR2-BaF3 (stably expressing VEGFR2 kinase), mouse Tel-RET-BaF3 (stably expressing RET kinase). The above cell lines were all constructed by our laboratory according to the following method: the kinase region sequences of human P210 Bcr-Abl, ABL, C-KIT, C-KIT V559D, C-KIT V559D/V654A, C-KIT N822K, C-KIT V654A, C-KIT L567P, C-KIT T670I, PDGFRα, PDGFRβ, VEGFR2, RET were amplified respectively by PCR, inserted respectively into MSCV-Puro vectors harboring N-terminal TEL fragment and/or NPM fragment and/or TPR fragment (Clontech), then the vectors were stably transfected into mouse BaF3 cells by retrovirus methods and growth factor IL-3 was removed, eventually obtaining cell lines that are transferred protein (P210 Bcr-Abl, ABL, C-KIT, C-KIT V559D, C-KIT V559D/V654A, C-KIT N822K, C-KIT V654A, C-KIT L567P, C-KIT T670I, PDGFRα, PDGFRβ, VEGFR2, RET)-dependent.
(§2) The cells were incubated for 72 hours, and then the number of viable cells was quantified with a microplate reader by using CCK-8 Cell Viability Assay Kit (purchased from Bestbio Company, Shanghai, China) (CCK-8 can be reduced by dehydrogenase in living cells to a highly water-soluble yellow formazan product, and the amount of formazan produced is proportional to the number of living cells).

Ku812 cells (Bcr-Abl) = assay: Cancer cell proliferation, CCK-8, Ku812; type: cell-based; settings: Homo sapiens; Ku812, Bcr-Abl, 72 hours, CCK-8; read-out: GI50
Description: (§3) In the present example, the following cells were used: chronic myelogenous leukemia cells K562 (expressing P210 Bcr-Abl mutant gene), human megakaryocytic leukemia cells MEG-01 (expressing P210 Bcr-Abl mutant gene), human peripheral blood basophilic leukemia cells Ku812 (expressing Bcr-Abl mutant gene) (all above cells purchased from ATCC, USA), human gastrointestinal stromal tumor cell lines GIST-T1 cells (expressing wild-type C-KIT gene) (purchased from Cosmo Bio Co., Ltd., Japan), human gastrointestinal stromal tumor cell lines GIST-882 cells (expressing wild-type C-KIT gene) (presented by the Professor Gray Lab, Dana-Farber Cancer Institute, Harvard University, USA), mouse pro-B cells BaF3 (purchased from ATCC, USA).
as §2

[2] = test system: Tel-cKit/T670I-BaF3 cells (KIT T670I); assay: Cell proliferation, CCK-8, Tel-cKit/T670I-BaF3; type: cell-based; settings: Mus musculus, 72 hours
Description: as §1, §2

[3] = test system: gastrointestinal stromal tumor cell lines GIST-T1; assay: Mouse tumor model of GIST-T1 cells; type: in vivo; settings: for tumor inhibition rate: Day 28 after administration
Experimental: 1. 4-6 week-old Bal b/c female mice were purchased from Shanghai SLAC Experimental Animal Co., Ltd., and were raised in a SPF-level laboratory. Drinking water and padding were both subjected to aseptic processing via high-pressure disinfection, and all operations of the mice were conducted under aseptic conditions;
2. About 5×10^6 gastrointestinal stromal tumor cell lines GIST-T1 or GIST-882 (purchased from ATCC) were respectively injected subcutaneously at left side back of all mice at Day 0;
5. Mice were sacrificed on Day 36 (for GIST-882 mouse model) or Day 43 (GIST-T1 mouse model) and subcutaneous tumors were taken out and weighed for comparison;
6. Tumor tissue specimens were prepared into protein lysate samples for further usage;
7. Growth trend of subcutaneous tumors from Day 16 to Day 43 was derived, and tumor volume was calculated as length×width×width/2 mm^3.

[4] = test system: phosphorylation of C-KIT and pathway proteins in GIST-T1 cells; assay: Effects on cell signaling pathways (phosphorylation), GIST-T1; type: cell-based, human; settings: GIST-T1, 0.1 μM, 2 hours
[5] = test system: Tel-cKit-BaF3 cells (KIT WT); assay: Cell proliferation, CCK-8, Tel-cKit-BaF3; type: cell-based; settings: Mus musculus, 72 hours
Description: as §1, §2

[6] = test system: cells expressing wild-type C-KIT kinase; assay: Cell proliferation, C-KIT cells; type: cell-based; settings: cells expressing wild-type C-KIT kinase, summary of Table 2
Description: as §3, §1, §2

[7] = test system: P210/BaF3 cells (P210 Bcr-Abl); assay: Cell proliferation, CCK-8, P210/BaF3; type: cell-based; settings: Mus musculus; P210/BaF3, Bcr-Abl, 72 hours, CCK-8; read-out: GI50
Description: In addition, in the present example, further uses: mouse P210/BaF3 (stably expressing P210 Bcr-Abl mutant gene), mouse Tel-ABL-BaF3 (stably expressing wild-type ABL kinase), mouse Tel-cKit-BaF3 (stably expressing C-KITwild-type kinase), mouse Tel-cKit/V559D-BaF3 (stably expressing C-KIT V559D mutant kinase), mouse Tel-cKit/V559D/V654A-BaF3 (stably expressing C-KIT V559D/V654A mutant kinase), mouse Tel-cKit/N822K-BaF3 (stably expressing C-KIT N822K mutant kinase), mouse Tel-cKit/V654A-BaF3 (stably expressing C-KIT V654A mutant kinase), mouse Tel-cKit/L567P-BaF3 (stably expressing C-KIT L567P mutant kinase), mouse Tel-cKit/T670I-BaF3 (stably expressing C-KIT T670I mutant kinase), mouse Tel-PDGFRα-BaF3 (stably expressing PDGFRα kinase), mouse Tel-PDGFRβ-BaF3 (stably expressing PDGFRβ kinase), mouse Tel-VEGFR2-BaF3 (stably expressing VEGFR2 kinase), mouse Tel-RET-BaF3 (stably expressing RET kinase). […]
as §2

[8] = test system: Tel-PDGFRα-BaF3 cells (PDGFRα); assay: Cell proliferation, CCK-8, Tel-PDGFRα-BaF3; type: cell-based; settings: Mus musculus, 72 hours
Description: as §1, §2

GIST-882 cells = assay: Cancer cell proliferation, CCK-8, GIST-882; type: cell-based; settings: Homo sapiens, GIST882, GIST-882, KIT WT, 72 hours
Description: as §3, §2

**Q.** How did the GI50 [1] turn out when Cc1ccc(NC(=O)c2cccc(C(F)(F)F)c2)cc1OC1CCN(C(=O)c2ccncc2)CC1 [Compound 4] was run?
**A.** 40 nM

**Q.** What about the GI50 (Ku812 cells (Bcr-Abl)) of the same compound?
**A.** 6710 nM

**Q.** And the GI50 [2]?
**A.** 5310 nM

**Q.** What about the “inhibitory effect on mouse tumors” value ([3]; 25 mg/kg oral daily, Day 4 after administration) of the same compound?
**A.** certain inhibitory effect

**Q.** What about the tumor inhibition rate ([3]; 50 mg/kg oral daily) of the same compound?
**A.** 65.3%

**Q.** And the tumor inhibition rate ([3]; 100 mg/kg oral daily)?
**A.** 73.8%

**Q.** And the “effect on body weight of mice” value ([3]; oral daily dosing)?
**A.** no effect on the body weight of mice

**Q.** And the “phosphorylation of C-KIT oncogenic protein” value [4]?
**A.** significantly inhibiting

**Q.** What about the “phosphorylation of proteins such as Stat5, AKT, ErK, S6K, S6, PDGFRα” value [4] of the same compound?
**A.** significant inhibitory effects

**Q.** And the GI50 [5]?
**A.** 190 nM

**Q.** What about the GI50 [6] of the same compound?
**A.** < 500 nM

**Q.** And the GI50 [7]?
**A.** 6050 nM

**Q.** What about the GI50 [8] of the same compound?
**A.** 38 nM

**Q.** And the GI50 (GIST-882 cells)?
**A.** 43 nM
